Laboratory results from patent US7807656B2, “Pharmaceutical applications of hyaluronic acid preparations” (priority 2001, dated 2010).

Tested on: adipose tissue
Assay: addition of hyaluronic acid to liposuction infiltration solution
Format: in vivo
Conditions: added to infiltration solution
Procedure: Hyaluronic acid can also be added to infiltration solutions which are injected into the tissue prior to a liposuction. These infiltration solutions are usually isotonic or hypotonic salt solutions which can contain additives, for example blood vessel-contracting and/or pain-reducing additives, such as noradrenaline, adrenaline, lidocaine, prilocalne, bicarbonate, corticosteroids, etc. Hyaluronic acid (crosslinked and/or uncrosslinked hyaluronic acid) is advantageously added to these solutions at concentrations of from 0.001 to 1.0% (wt/vol), preferably of from 0.01 to 0.5% (wt/vol), e.g. of about 0.025% (wt/vol). […] Furthermore, structures in the adipose tissue which are worth conserving, such as blood vessels, nerves or connective tissue bands, are spared. Adding the hyaluronic acid also makes the process of liposuction markedly more atraumatic when compared with the conventional procedure. […] This also leads to a reduction in the tissue trauma. All in all, adding hyaluronic acid to the infiltration solution protects the remaining adipose tissue in the body and results in the adipose tissue aspirate being withdrawn in a gentler manner.
This is of importance insofar as adipose tissue aspirates can be used as endogenous transplants. […]

Substance: hyaluronic acid
- survival of fat cells in the aspirate: improves the survival of fat cells
- growth of transferred tissue at the recipient site (aspirate transplanted): grow more strongly
